Data on one compound can be found in publication PMC4792161, “A novel pyrazole derivative protects from ovariectomy-induced osteoporosis through the inhibition of NADPH oxidase” (Scientific Reports, 2016).

Structures can show the parent of a compound that is named as a salt.

Data set [1] deals with glucose oxidase (Aspergillus niger, UniProt P13006). The data set can be described thus: Glucose oxidase assay (lucigenin). Format: biochemical. The method, then: Glucose oxidase activity was measured by lucigenin. Reaction mixtures contained 0.75 mM glucose, 0.25 mg/ml glucose oxidase, and 0.4 mM lucigenin with the indicated inhibitor (0–20μM). Luminescence was measured over 30 min at 37 °C with luminometor (DTX800, Beckman coulter).
glucose oxidase, sequence (P13006 17-605, species assumed): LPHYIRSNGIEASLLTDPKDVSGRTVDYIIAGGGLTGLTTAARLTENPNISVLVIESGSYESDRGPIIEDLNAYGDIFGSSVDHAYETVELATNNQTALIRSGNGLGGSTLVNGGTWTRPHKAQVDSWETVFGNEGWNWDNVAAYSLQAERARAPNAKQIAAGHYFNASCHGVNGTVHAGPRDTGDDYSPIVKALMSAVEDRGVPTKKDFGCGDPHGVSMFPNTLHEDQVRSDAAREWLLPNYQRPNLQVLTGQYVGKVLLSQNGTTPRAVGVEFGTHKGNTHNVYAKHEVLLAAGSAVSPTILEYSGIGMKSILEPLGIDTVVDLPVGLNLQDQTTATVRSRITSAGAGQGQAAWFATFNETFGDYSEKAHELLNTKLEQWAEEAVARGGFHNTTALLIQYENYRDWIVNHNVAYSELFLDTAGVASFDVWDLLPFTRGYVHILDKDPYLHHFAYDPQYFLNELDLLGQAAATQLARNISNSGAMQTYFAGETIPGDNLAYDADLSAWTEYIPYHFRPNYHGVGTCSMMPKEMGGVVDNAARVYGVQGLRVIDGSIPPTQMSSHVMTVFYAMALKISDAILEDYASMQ

A short description of data set [2]: Direct ROS (H2O2) scavenging in vitro. As to conditions: 20 μM compound, 1 mM H2O2. The text has this:
Based on the notion that the differentiation of OCs is mediated by Nox1/2/4-dependent ROS generation, we have performed a high throughput enzyme inhibitor screening assay to identify chemical compounds having Nox1/2/4 inhibitory activity for the development of an anti-osteoporosis agent. Purified Drosophila membranes expressing human Nox1, Nox2, or Nox4 were used to monitor ROS production by determining the oxidation of lucigenin, evident as chemiluminescence, in the absence or presence of chemical compound[18]. A chemical library containing 31,000 compounds was screened to identify Nox inhibitors. […] (Fig. 1B, Supplementary Fig. S2). […] Moreover, we investigated whether Ewha-18278 can directly scavenge ROS in vitro.
Supplementary Figure S3. (A) Ewha-18278 compounds can not directly scavenge superoxide or other reactive species in vitro. ROS (H2O2) measured with lucigenin. Reaction mixtures contained 1 […]
Luminescence measured over 30 min at 37
°C with luminometor (Gloma X luminometor, Turner BioSystem). […]
the phagocytosis of zymosan. […]
incubated with FITC-zymosan particles, and internalized fluorescence was measured by flow cytometry. The data are presented as the MFI of internalized FITC. Data represent mean ± S.D. […]

The subject of data set [3] is BMMs. The data set can be described thus: RANKL-induced intracellular ROS generation (DCF fluorescence). Type of data set: cell-based, C57BL/6 mice. An excerpt:
RANKL-induced ROS generation was monitored by confocal microscopic analysis of DCF fluorescence. Data represent three repeated experiments and are shown as mean ± SD (n = 3). […] (D) TRAP^+ MNCs containing more than 3 nuclei were counted. Data represent mean ± S.D., *P < 0.005. Scale bar, 500 μm.
DCF-DA is oxidized by ROS to the highly fluorescent DCF. After washed with HBSS, the cells were then examined with a laser scanning confocal microscope (LSM510; Zeiss) equipped with an argon laser tuned to an excitation wavelength of 488 nm, an LP505 emission filter (515–540 nm), and a Zeiss Axiovert objective lens. Images were digitized and stored at a resolution of 512 by 512 pixels. Five groups of cells were randomly selected from each sample, and the mean relative fluorescence intensity for each group of cells was measured with a Zeiss vision system and then averaged for all groups. All experiments were repeated at least three times.

The subject of data set [4] is Pre-OCs. In words: OC fusion assay. Type of data set: cell-based, C57BL/6 mice. As to conditions: 10 μM, 24 hours. How it is done: Cells were stained for TRAP using a leukocyte acid phosphatase cytochemistry kit (Sigma-Aldrich, St. Louis, MO, USA) according to the manufacturer’s instructions. […]
(§1) Scale bar, 500 μm. (C,D) Mature OCs were generated with M-CSF and RANKL, cells were seeded onto dentine discs and further cultured with […]
(§2) Cells were stained with hematoxylin for visualization of pit formation (C). The area of resorption pits were measured with Image-Pro Plus 4.5 (D). Scale bar, 500
(§3) μm. Data represent mean ± S.D., n.s., not significant. […]

Data set [5] has as its system Mature OCs. The data set can be described thus: Bone resorption assay on dentine discs. Format: cell-based, C57BL/6 mice. As to conditions: 10 μM, 24 hours. How it is done:
The cells were removed from the dentine discs and the dentine discs were stained with hematoxylin. Pit areas were photographed under a light microscope and analyzed using Image-Pro Plus version 4.5 software (Media-Cybernetics, Rockville, MD, USA). […]
as §1, §2, §3

For data set [6], the system named is BMMs. The data set can be described thus: RANKL-induced signaling, immunoblot of phospho-ERK, p38, JNK, IκBα. Format: cell-based, C57BL/6 mice. As to conditions: BMMs pretreated 1 hour. The text has this: Data represent mean ± SD. […] Actin serves as a loading control.
(In general: A western blot detects proteins with antibodies after separation by electrophoresis.)

Data set [7] is described as follows: Pharmacokinetics after IV and oral administration to rats. Format: in vivo. The method, then: Supplementary Table S1. Pharmacokinetic parameters of Ewha-89403 following IV and oral administration at the doses of 1 mg/kg and 10 mg/kg, respectively, to rats (n=4-5) PK Parameters IV Injection Oral Administration
Absolute Bioavailability (BA) = 4.3 %
Supplementary Table S2. Pharmacokinetic parameters of Ewha-18278 following IV and oral administration at the doses of 2 mg/kg and 20 mg/kg, respectively, to rats (n=5-6) […]
Absolute Bioavailability (BA) = 63.8 %

As for `CCCc1c(-c2ccccc2)nn(-c2ccccn2)c1O` [Ewha-18278, 3-phenyl-1-(pyridin-2-yl)-4-propyl-1H-5-hydroxypyrazole HCl], the “inhibitory activity on glucose oxidase” value in data set [1] is reported as “no inhibitory activities”. Further, the “change in hydrogen peroxide concentration (ROS scavenging)” value in data set [2] was “had no effect”. For the same compound, the “RANKL-mediated ROS generation” value in data set [3] (RANKL 200 ng/ml 10 minutes) is “reduced RANKL-mediated ROS generation in dose- and time-dependent manners”. Besides, the “concentration at plateau of inhibition of RANKL-dependent ROS generation” value in data set [3] (after 60 min) stood at 10 µM. Moreover, the “fusion of OCs” value in data set [4] is “did not affect”. Moreover, the “bone resorption activity of OCs” value in data set [5] is given as “did not affect”. Moreover, in data set [6], the “activation of MAPKs (JNK, p38, ERK) and phosphorylation of IκBα” value is “suppressed activation”. In data set [7] (IV 2 mg/kg), this compound registered a Clt of 250 ± 72.3 mL/h. Further, in data set [7] (compared to Ewha-89403), the oral availability result is “high oral availability”. In data set [7] (rat, in vivo, IV 2 mg/kg), this compound gave an AUC(0-inf) of 2150 ± 693 ng·h/mL, an AUC(0-t) of 1770 ± 697 ng·h/mL, a C0 of 7480 ± 3420 ng/mL and a Vd of 1.52 ± 1.17 L. In data set [7] (rat, in vivo, IV 2 mg/kg), this compound gave a half-life of 244 ± 137 min. The bioavailability in data set [7] (rat, in vivo, IV 2 mg/kg and oral 20 mg/kg, read-out: Absolute Bioavailability (BA)) is 63.8%. Further, in data set [7] (rat, in vivo, oral 20 mg/kg), the AUC(0-inf) was 14400 ± 8170 ng·h/mL, the AUC(0-t) came to 11300 ± 6470 ng·h/mL, the Cmax was determined as 5010 ± 2510 ng/mL and the Tmax was 14 ± 10.3 min. The same compound showed a half-life in data set [7] (rat, in vivo, oral 20 mg/kg) of 864 ± 224 min.

As a reminder, the AUC(0-inf) is total exposure, with the tail of the curve extrapolated. Low values mean less exposure, high ones more exposure. Usually AUC(0-t) stands for the area under the concentration-time curve up to a stated or last time point. A low value points to less exposure. One may read the half-life as the time needed for the level to fall by half in the phase considered. Read a low half-life as fast loss. By bioavailability is commonly meant dose-corrected exposure relative to a reference, in per cent. Usually Cmax stands for the maximum level reached in the sampled fluid or tissue. What is called Tmax is the time from dosing to the highest level.
